Tests used:
Type in all cases: in vivo
[1] = system: Puccinia recondita tritici (leaf rust); experiment: Greenhouse Test 1, foliar spray fungicide screen (LEAF RUST), host wheat; conditions: disease control rating, 400 ppm (+++ at 100 ppm)
[2] = system: Southern corn rootworm (Diabrotica undecimpuctata howardi Barber); experiment: Mite/insect screen, soil treatment (CRW); conditions: Diabrotica, percent mortality, soil treatment, read-out: CRW RESULTS %; for mortality at 12 ppm: CRW rate 12.00 ppm; for mortality at 24 ppm: CRW rate 24.00 ppm
Outline: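 Compounds dissolved in acetone/alcohol (50:50) with Toximul R/S emulsifiers, diluted with water. Soil (15 g, with presoaked corn seed) treated with 1 mL test solution, dried 6–12 h, then five 2–3 instar larvae added; held at 23°C. Percent mortality and phytotoxicity scored after standard exposure periods.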

[3] = system: Pseudoperonospora cubensis (downy mildew); experiment: Greenhouse Test 1, foliar spray fungicide screen (DOWN MDEW), host squash; conditions: disease control rating, 400 ppm (+++ at 100 ppm)
[4] = system: Botrytis cinerea (gray mold); experiment: Greenhouse Test 1, foliar spray fungicide screen (GRAY MOLD), host grape berries; conditions: disease control rating, 400 ppm (+++ at 100 ppm)
[5] = system: Pyricularia oryzae (rice blast); conditions: disease control rating, foliar spray, host rice; 400 ppm (+++ at 100 ppm)
[6] = system: Twospotted spider mites (Tetranychus urticae Koch); experiment: Mite/insect screen, sprayed squash cotyledons (SM); conditions: Tetranychus urticae, percent mortality, read-out: SM RESULTS %; for mortality at 200 ppm: spray rate 200 ppm; for mortality at 400 ppm: spray rate 400 ppm
Outline: (§1)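 Acetone/alcohol (50:50) + emulsifier blends 23 g/L and 13 g/L; water dilution to test concs. Spray both leaf surfaces to runoff, dry 1 h. For armyworm, 2 excised uninfested leaves into Petri dish with larvae. Readout: % mortality, phytotoxicity.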

[7] = system: Erysiphe graminis tritici (powdery mildew); experiment: Greenhouse Test 1, foliar spray fungicide screen (POWD MDEW), host wheat; conditions: disease control rating, 400 ppm (+++ at 100 ppm)
[8] = system: southern armyworm (Spodopetra eridania Cramer); experiment: Mite/insect screen, sprayed squash leaves (SAW); conditions: percent mortality; for mortality at 200 ppm / mortality at 400 ppm: Spodoptera eridania, read-out: SAW RESULTS %
Outline: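 Compounds dissolved in acetone/alcohol with TOXIMUL R/S emulsifiers, diluted with water to test concentrations, and sprayed to runoff on both leaf surfaces at 10 psi, then dried 1 h. Excised treated squash leaves given southern armyworm larvae; aphid and spider mite tests on sprayed squash cotyledons. Percent mortality and phytotoxicity scored after standard exposure.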

[9] = system: melon aphids (Aphis gossypii Glover); experiment: Mite/insect screen, sprayed squash cotyledons (MA); conditions: Aphis gossypii, percent mortality, read-out: MA RESULTS %; for mortality at 200 ppm: spray rate 200 ppm; for mortality at 400 ppm: spray rate 400 ppm
Outline: as §1

| Compound | LEAF RUST [1] | mortality at 12 ppm [2] [%] | mortality at 24 ppm [2] [%] | DOWN MDEW [3] | GRAY MOLD [4] | RICE BLAST [5] | mortality at 200 ppm [6] [%] | mortality at 400 ppm [6] [%] | POWD MDEW [7] | mortality at 200 ppm ([8]; spray rate 200 ppm) [%] | mortality at 400 ppm ([8]; spray rate 400 ppm) [%] | mortality at 200 ppm [9] [%] | mortality at 400 ppm [9] [%] | SAW RESULTS % ([8]; spray rate 200 ppm) [%] | SAW RESULTS % ([8]; spray rate 400 ppm) [%] |
| --- | --- | --- | --- | --- | --- | --- | --- | --- | --- | --- | --- | --- | --- | --- | --- |
| Clc1ccc2ncnc(NCCc3ccc(-c4ccccc4)cc3)c2c1 [Example 90, 6-chloro-N-[2-(1,1'-biphenyl)-4-ylethyl]-4-quinazolinamine] | + (+ = 20-89% control at 400 ppm) | 0 | 0 | +++ (+++ = 90-100% control at 100 ppm) | - (- = 0-19% control at 400 ppm) | + (+ = 20-89% control at 400 ppm) | 100 | 0 | + (+ = 20-89% control at 400 ppm) | 0 | 100 | 80 | 0 | – | – |
| c1ccc(-c2cccc(CCOc3ncnc4ccccc34)c2)cc1 [Example 173, 4-[2-(1,1'-biphenyl)-3-ylethoxy]quinazoline] | + (+ = 20-89% control at 400 ppm) | 0 | 0 | + (+ = 20-89% control at 400 ppm) | - (- = 0-19% control at 400 ppm) | +++ (+++ = 90-100% control at 100 ppm) | 0 | 0 | ++ (++ = 90-100% control at 400 ppm) | 0 | 0 | 80 | 0 | – | – |
| CC(C)C(COc1ncnc2ccccc12)c1ccccc1 (stereo not shown) [Example 165, 4-(3-methyl-2-phenylbutoxy)quinazoline] | ++ (++ = 90-100% control at 400 ppm) | 0 | 0 | ++ (++ = 90-100% control at 400 ppm) | - (- = 0-19% control at 400 ppm) | ++ (++ = 90-100% control at 400 ppm) | 0 | 0 | ++ (++ = 90-100% control at 400 ppm) | 0 | 0 | 50 | 80 | – | – |
| COc1cccc(CCOc2ncnc3ccccc23)c1 [Example 13, 4-[2-(3-methoxyphenyl)ethoxy]quinazoline] | +++ (+++ = 90-100% control at 100 ppm) | – | 0 | +++ (+++ = 90-100% control at 100 ppm) | - (- = 0-19% control at 400 ppm) | +++ (+++ = 90-100% control at 100 ppm) | – | 90 | +++ (+++ = 90-100% control at 100 ppm) | – | 0 | – | 90 | – | – |
| Fc1cccc2c(OCCc3ccccc3C(F)(F)F)ncnc12 [Example 56, 8-fluoro-4-[2-[2-(trifluoromethyl)phenyl]ethoxy]quinazoline] | +++ (+++ = 90-100% control at 100 ppm) | 0 | 0 | +++ (+++ = 90-100% control at 100 ppm) | - (- = 0-19% control at 400 ppm) | +++ (+++ = 90-100% control at 100 ppm) | 40 | 0 | +++ (+++ = 90-100% control at 100 ppm) | 0 | 0 | 100 | 0 | – | – |
| Cc1ccc2ncnc(NCCc3cccc(Oc4ccccc4)c3)c2c1 [Example 190, 6-methyl-N-[2-(3-phenoxyphenyl)ethyl]-4-quinazolinamine] | +++ (+++ = 90-100% control at 100 ppm) | 0 | 0 | +++ (+++ = 90-100% control at 100 ppm) | - (- = 0-19% control at 400 ppm) | +++ (+++ = 90-100% control at 100 ppm) | 80 | 0 | +++ (+++ = 90-100% control at 100 ppm) | 0 | 0 | 40 | 0 | – | – |
| Fc1ccccc1Oc1ccc(CCOc2ncnc3ccccc23)cc1 [Example 162, 4-(2-[4-(2-fluorophenoxy)phenyl]ethoxy]quinazoline] | +++ (+++ = 90-100% control at 100 ppm) | 0 | 100 | +++ (+++ = 90-100% control at 100 ppm) | - (- = 0-19% control at 400 ppm) | +++ (+++ = 90-100% control at 100 ppm) | 100 | 100 | +++ (+++ = 90-100% control at 100 ppm) | 60 | 0 | 80 | 80 | – | – |
| CC(C)(C)c1ccc(CCCCOc2ncnc3ccccc23)cc1 [Example 178, 4-[4-[4-(t-butyl)phenyl]butoxy]quinazoline] | - (- = 0-19% control at 400 ppm) | 0 | 0 | + (+ = 20-89% control at 400 ppm) | + (+ = 20-89% control at 400 ppm) | - (- = 0-19% control at 400 ppm) | 40 | 100 | ++ (++ = 90-100% control at 400 ppm) | 0 | 0 | 80 | 100 | – | – |
| FC(F)(F)Oc1ccc2ncnc(NCCc3ccc(Oc4ccccc4)cc3)c2c1 [Example 44, 6-(trifluoromethoxy)-N-[2-(4-phenoxyphenyl)ethyl]-4-quinazolinamine] | - (- = 0-19% control at 400 ppm) | – | 0 | + (+ = 20-89% control at 400 ppm) | - (- = 0-19% control at 400 ppm) | - (- = 0-19% control at 400 ppm) | – | 0 | - (- = 0-19% control at 400 ppm) | – | 0 | – | 0 | – | – |
| CC(C)c1ccc(CCNc2ncnc3c(F)cccc23)cc1 [Example 96, 8-fluoro-N-[2-[4-(i-propyl)phenyl]ethyl]-4-quinazolinamine] | +++ (+++ = 90-100% control at 100 ppm) | 0 | 0 | +++ (+++ = 90-100% control at 100 ppm) | - (- = 0-19% control at 400 ppm) | +++ (+++ = 90-100% control at 100 ppm) | 50 | 0 | +++ (+++ = 90-100% control at 100 ppm) | 100 | 100 | 50 | 0 | – | – |
| c1ccc(C(COc2ncnc3ccccc23)c2ccccc2)cc1 [Example 67, 4-(2,2-diphenylethoxy)quinazoline] | - (- = 0-19% control at 400 ppm) | – | 0 | ++ (++ = 90-100% control at 400 ppm) | - (- = 0-19% control at 400 ppm) | + (+ = 20-89% control at 400 ppm) | – | 60 | + (+ = 20-89% control at 400 ppm) | – | 0 | – | 30 | – | – |
| Fc1cccc2c(OCCc3ccc(-c4ccccc4)cc3)ncnc12 [Example 116, 8-fluoro-4-[2-(1,1'-biphenyl)-4-ylethoxy]quinazoline] | + (+ = 20-89% control at 400 ppm) | 0 | 0 | +++ (+++ = 90-100% control at 100 ppm) | - (- = 0-19% control at 400 ppm) | +++ (+++ = 90-100% control at 100 ppm) | – | 0 | ++ (++ = 90-100% control at 400 ppm) | – | – | – | 0 | 0 | 0 |
| Fc1cccc2c(OCCC3CCCCC3)ncnc12 [Example 70, 4-(2-cyclohexylethoxy)-8-fluoroquinazoline] | + (+ = 20-89% control at 400 ppm) | – | 0 | + (+ = 20-89% control at 400 ppm) | - (- = 0-19% control at 400 ppm) | +++ (+++ = 90-100% control at 100 ppm) | – | 80 | + (+ = 20-89% control at 400 ppm) | – | 0 | – | 0 | – | – |

Reference: patent publication EP0326329B1, “Quinazoline derivatives useful as insecticides” (Dow AgroSciences LLC, priority 1988, dated 1989)
